Source: patent US12649746B2, “Ketorolaco derivative, pharmaceutical composition and preparation method therefor and use thereof” (NANJING HERON PHARMACEUTICAL SCIENCE AND TECHNOLOGY CO., …, priority 2020, dated 2026)
“Also recorded” adds a separate entry of the source. Read-outs that look alike come from different tables or passages of the source.

What was measured:
in vitro = settings: human, plasma
[1] = High temperature stability study of compounds (60° C.); type: physicochemical; settings: in the dark; for Ketorolac (%): related substance
Experimental: Test protocol: the compounds prepared in the present disclosure were placed in a colorless and transparent vial, placed in the dark at a high temperature (60° C.), and were sampled for day 0, day 5 and day 10, respectively, and the purity of the compounds and the change of the related substance (ketorolac) were determined.

[2] = human, 97.6 µM
[3] = Enzymolysis kinetics experiment of compounds in plasma; settings: for half-life at 97.6 µM: human, plasma; for Content of the compound %: 37° C.
[4] = By-product toxicity test (metabolic byproducts in the human body); settings: for Metabolic by-products in human body: by the metabolic pathways of the compounds in the human body; for Toxicity: toxicity of the metabolic by-products in human body
[5] = cited from earlier work
[6] = cited from earlier work; remark: listed apart in the source
[7] = oral administration and intramuscular injection

Row | SMILES | half-life at 97.6 µM (in vitro) | Total main peak purity (%) ([1]; Day 0) | Total main peak purity (%) ([1]; Day 5) | Total main peak purity (%) ([1]; Day 10) | Ketorolac (%) ([1]; Day 0) | Ketorolac (%) ([1]; Day 5) | Ketorolac (%) ([1]; Day 10) | Content of ketorolac % ([2]; 0 min) | Content of the compound % ([2]; 0 min) | Content of ketorolac % ([2]; 15 min) | Content of the compound % ([2]; 15 min) | Content of ketorolac % ([2]; 30 min) | Content of the compound % ([2]; 30 min) | Content of ketorolac % ([2]; 60 min) | Content of the compound % ([2]; 60 min) | Content of ketorolac % ([2]; 120 min) | Content of the compound % ([2]; 120 min) | Metabolic by-products in human body [4] | Toxicity [4] | other results
1 | CCC(OC(=O)OC(C)C)OC(=O)C1CCn2c(C(=O)c3ccccc3)ccc21 (centres unmarked) [N16] | 31.6 min | 97.33% | 96.50% | 96.16% | 0.05% | 0.07% | 0.07% | 0% | 100 ± 4.001% | 9.847 ± 2.479% | 82.710 ± 1.909% | 28.653 ± 0.277% | 65.987 ± 0.506% | 56.793 ± 2.096% | 35.437 ± 1.960% | 70.443 ± 4.274% | 7.047 ± 0.374% | – | – | –
2 | CC(C)OC(=O)C1CCn2c(C(=O)c3ccccc3)ccc21 (centres unmarked) [N11, reference compound] | 347 min | – | – | – | – | – | – | 0% | 99.700 ± 2.928% | 0% | 99.813 ± 4.881% | 0% | 89.807 ± 2.538% | 2.270 ± 0.328% | 83.490 ± 9.087% | – | – | – | – | –
3 | CCOC(=O)OC(CC)OC(=O)C1CCn2c(C(=O)c3ccccc3)ccc21 (centres unmarked) [N15] | – | 96.30% | 95.87% | 95.59% | 0.08% | 0.09% | 0.14% | 1.727 ± 1.502% | 99.560 ± 2.324% | 23.933 ± 1.119% | 76.800 ± 2.423% | 50.917 ± 1.868% | 46.680 ± 2.229% | 83.957 ± 3.139% | 12.760 ± 1.133% | 96.910 ± 3.848% | 0.893 ± 0.051% | – | – | half-life at 97.6 µM [3]: 16.9 min
4 | CCOC(=O)OC(C)OC(=O)C1CCn2c(C(=O)c3ccccc3)ccc21 (centres unmarked) [N12] | 14.8 min | 93.84% | 93.59% | 93.36% | 0.03% | 0.07% | 0.07% | 2.033 ± 0.342% | 97.967 ± 6.878% | 34.203 ± 3.165% | 56.277 ± 3.890% | 53.297 ± 1.296% | 25.590 ± 1.131% | 76.623 ± 10.483% | 5.997 ± 0.976% | 87.973 ± 4.045% | 0% | Acetaldehyde and acetic acid | low toxicity of byproducts; also recorded: relatively low | –
5 | CC(=O)OC(C)OC(=O)C(C)c1ccc(-c2ccccc2)c(F)c1 (centres unmarked) [FPA, flurbiprofen axetil, reference compound] | 40.8 min | – | – | – | – | – | – | – | – | – | – | – | – | – | – | – | – | – | – | degradation / metabolic rate in human plasma (in words) ([3]; human plasma, up to 120 min): could be metabolized faster
6 | CCCCCCC(=O)OC(C)OC(=O)C1CCn2c(C(=O)c3ccccc3)ccc21 (centres unmarked) [N27] | – | – | – | – | – | – | – | – | – | – | – | – | – | – | – | – | – | Acetaldehyde and n-heptanoic acid | low | Content of the compound % ([3]; human plasma, 1 min): 100%; Content of the compound % ([3]; human plasma, 15 min): 100%; Content of the compound % ([3]; human plasma, 30 min): 90.63 ± 1.81%; Content of the compound % ([3]; human plasma, 60 min): 63.89 ± 1.20%; Content of the compound % ([3]; human plasma, 120 min): 35.75 ± 1.46%; half-life at 97.6 µM [3]: 73.9 min
7 | CC(C)OC(=O)OC(C)OC(=O)C1CCn2c(C(=O)c3ccccc3)ccc21 (centres unmarked) [N2] | 38.6 min | 95.58% | 95.21% | 94.82% | 0.03% | 0.04% | 0.05% | 1.050 ± 0.079% | 98.950 ± 3.765% | 8.860 ± 0.426% | 88.103 ± 2.289% | 20.993 ± 0.561% | 72.813 ± 2.707% | 34.590 ± 1.381% | 47.510 ± 1.739% | 59.790 ± 2.019% | 12.573 ± 0.260% | Acetaldehyde and isopropyl alcohol | low toxicity of byproducts; also recorded: relatively low | –
8 | CCC(=O)OC(CC)OC(=O)C1CCn2c(C(=O)c3ccccc3)ccc21 (centres unmarked) [N8] | 16.9 min | 93.15% | 93.30% | 92.34% | 0.18% | 0.42% | 0.96% | 0% | 100 ± 1.782% | 19.140 ± 1.467% | 69.713 ± 6.985% | 36.277 ± 3.301% | 42.467 ± 2.983% | 53.130 ± 2.171% | 8.777 ± 0.560% | 65.997 ± 3.446% | 0% | – | low toxicity of byproducts; also recorded: relatively low | –
9 | O=C(c1ccccc1)c1ccc2n1CCC2C(=O)O (racemic) [Ketorolac, (±)-5-benzoyl-2,3-dihydro-1H-pyrrolizine-1-carboxylic acid] | – | – | – | – | – | – | – | – | – | – | – | – | – | – | – | – | – | – | – | analgesic activity relative to aspirin ([5]; times that of aspirin): 800 times; analgesic activity relative to indomethacin ([5]; times that of indomethacin): 60 times; analgesic activity relative to morphine ([5]; times that of morphine): 0.4 times; elimination half-life ([6]; elderly patients): 360 to 420 min; binding rate to plasma protein ([6]; in vivo): more than 99%; distribution volume ([6]; in vivo): 0.1 to 0.3 L/kg; elimination half-life ([6]; in vivo): 240 to 360 min; original drug and metabolites excreted with the urine ([6]; in vivo): about 90%; total clearance rate ([6]; in vivo): 0.5 mL/min/kg; effective treatment plasma concentration [6, 7]: 0.3 to 5 µg/mL; peak concentration time of the plasma concentration [6, 7]: 20 to 60 min; elimination half-life ([6]; renal insufficiency patients): 540 to 600 min
10 | CC(OC(=O)C1CCn2c(C(=O)c3ccccc3)ccc21)OC(=O)C1CCn2c(C(=O)c3ccccc3)ccc21 (centres unmarked) [N22] | – | – | – | – | – | – | – | – | – | – | – | – | – | – | – | – | – | Acetaldehyde | relatively low toxicity of byproducts | metabolic rates (in words) ([3]; summary statement, metabolized in a human body): slow metabolic rates
11 | CCCCCCCCOC(=O)OC(C)OC(=O)C1CCn2c(C(=O)c3ccccc3)ccc21 (centres unmarked) [N26] | 177 min | – | – | – | – | – | – | – | – | 0% | 100% | 3.89 ± 0.61% | 95.48 ± 1.56% | 8.60 ± 0.33% | 89.20 ± 1.67% | 24.34 ± 0.90% | 68.99 ± 1.45% | – | n-octanol is more toxic | Content of ketorolac % ([2]; 1 min): 0%; Content of the compound % ([2]; 1 min): 100%
12 | CC(=O)OC(OC(=O)C1CCn2c(C(=O)c3ccccc3)ccc21)C(C)C (centres unmarked) [N5] | – | 97.46% | 97.62% | 97.37% | 0.14% | 0.15% | 0.17% | – | – | – | – | – | – | – | – | – | – | Isobutyraldehyde and acetic acid | – | –
